According to patent US12291518B2, “Thyroid hormone receptor agonists and use thereof” (Eccogene Inc., priority 2020, dated 2025):

Columns and labels:
THR alpha-LBD = target: T1, THR alpha-LBD (Homo sapiens, UniProt P10827); assay: THR-α Coactivator Peptide Recruitment Assay (LanthaScreen TR-FRET); format: biochemical; settings: TR-FRET coactivator recruitment, THR alpha-LBD 0.25 nM; for EC50: read-out: THRα EC50
T1 construct: except that THR alpha-LBD of a final concentration 0.25 nM was used; purchased Invitrogen PV4687
T1 sequence (P10827 163-410 isoform P10827-2 limits assumed, other chains not shown): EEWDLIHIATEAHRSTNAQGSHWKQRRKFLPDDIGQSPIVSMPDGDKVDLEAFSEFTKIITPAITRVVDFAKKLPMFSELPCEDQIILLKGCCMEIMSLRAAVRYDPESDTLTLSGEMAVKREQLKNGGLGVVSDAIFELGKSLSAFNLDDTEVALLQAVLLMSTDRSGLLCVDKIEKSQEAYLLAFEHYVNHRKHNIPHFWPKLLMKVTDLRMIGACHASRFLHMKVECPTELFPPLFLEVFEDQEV
In short: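 TR-FRET coactivator recruitment with THR alpha-LBD at 0.25 nM final, Fluorescein-SRC2-2 peptide 0.1 nM and Tb-labeled anti-GST antibody 2 nM; 2 h incubation at room temperature. 520/495 nm emission ratio fitted to a four-parameter sigmoidal curve to give EC50.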

THR beta-LBD = target: T2, THR beta-LBD (Homo sapiens, UniProt P10828); assay: THR-β Coactivator Peptide Recruitment Assay (LanthaScreen TR-FRET); format: biochemical; settings: TR-FRET coactivator recruitment, THR beta-LBD 0.5 nM; for EC50: read-out: THRβ EC50
T2 construct: THR beta-LBD (the final concentration is 0.5 nM) was added to the 384-well assay plate; purchased Invitrogen PV4686
T2 sequence (P10828 217-461 limits assumed): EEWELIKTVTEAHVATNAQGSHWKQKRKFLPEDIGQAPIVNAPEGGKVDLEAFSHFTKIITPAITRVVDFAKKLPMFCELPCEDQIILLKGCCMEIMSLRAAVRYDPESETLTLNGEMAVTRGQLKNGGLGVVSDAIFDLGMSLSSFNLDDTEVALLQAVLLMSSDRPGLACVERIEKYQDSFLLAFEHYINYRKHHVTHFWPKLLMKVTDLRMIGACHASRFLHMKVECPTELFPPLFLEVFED
In short: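 GST-tagged THR beta-LBD (0.5 nM) with test compound recruits fluorescein-SRC2-2 coactivator peptide (0.1 nM), detected with Tb-anti-GST antibody (2 nM).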

THRα Emax (THR alpha-LBD)	EC50 (THR alpha-LBD) [µM]	THRβ Emax (THR beta-LBD)	EC50 (THR beta-LBD) [µM]	SMILES
B (40~85)	0.002 to 0.2	B (75~90)	< 0.002	CS(=O)(=O)N[C@H]1CCN(S(=O)(=O)c2cc(Oc3c(Cl)cc(-n4nc(C(F)F)c(=O)[nH]c4=O)cc3Cl)ccc2O)C1 [Compound 46, N-[(3S)-1-[5-[2,6-dichloro-4-[6-(difluoromethyl)-3,5-dioxo-1,2,4-triazin-2-yl]phenoxy]-2-hydroxy-phenyl]sulfonylpyrrolidin-3-yl]methanesulfonamide]
B (40~85)	0.002 to 0.2	C (<75)	0.002 to 0.02	CS(=O)(=O)N[C@@H]1CCN(S(=O)(=O)c2cc(Oc3c(Cl)cc(-n4nc(C(F)F)c(=O)[nH]c4=O)cc3Cl)ccc2O)C1 [Compound 47, (R)-N-(1-((5-(2,6-dichloro-4-(6-(difluoromethyl)-3,5-dioxo-4,5-dihydro-1,2,4-triazin-2(3H)-yl)phenoxy)-2-hydroxyphenyl)sulfonyl)pyrrolidin-3-yl)methanesulfonamide]
B (40~85)	0.2 to 1	C (<75)	0.002 to 0.02	O=c1[nH]c(=O)n(-c2cc(Cl)c(Oc3ccc(O)c(S(=O)(=O)N[C@@H]4CCN(S(=O)(=O)C5CC5)C4)c3)c(Cl)c2)nc1C(F)F [Compound 48, (R)-N-(1-(cyclopropylsulfonyl)pyrrolidin-3-yl)-5-(2,6-dichloro-4-(6-(difluoromethyl)-3,5-dioxo-4,5-dihydro-1,2,4-triazin-2(3H)-yl)phenoxy)-2-hydroxybenzenesulfonamide]
C (<40)	0.2 to 1	C (<75)	0.002 to 0.02	O=c1[nH]c(=O)n(-c2cc(Cl)c(Oc3ccc(O)c(S(=O)(=O)N[C@H]4CCN(S(=O)(=O)C5CC5)C4)c3)c(Cl)c2)nc1C(F)F [Compound 49, (S)-N-(1-(cyclopropylsulfonyl)pyrrolidin-3-yl)-5-(2,6-dichloro-4-(6-(difluoromethyl)-3,5-dioxo-4,5-dihydro-1,2,4-triazin-2(3H)-yl)phenoxy)-2-hydroxybenzenesulfonamide]
B (40~85)	0.2 to 1	C (<75)	0.002 to 0.02	CS(=O)(=O)N1CC[C@H](NS(=O)(=O)c2cc(Oc3c(Cl)cc(-n4nc(C(F)F)c(=O)[nH]c4=O)cc3Cl)ccc2O)C1 [Compound 50, (S)-5-(2,6-dichloro-4-(6-(difluoromethyl)-3,5-dioxo-4,5-dihydro-1,2,4-triazin-2(3H)-yl)phenoxy)-2-hydroxy-N-(1-(methylsulfonyl)pyrrolidin-3-yl)benzenesulfonamide]
B (40~85)	0.2 to 1	C (<75)	0.002 to 0.02	CS(=O)(=O)N1CC[C@@H](NS(=O)(=O)c2cc(Oc3c(Cl)cc(-n4nc(C(F)F)c(=O)[nH]c4=O)cc3Cl)ccc2O)C1 [Compound 51, (R)-5-(2,6-dichloro-4-(6-(difluoromethyl)-3,5-dioxo-4,5-dihydro-1,2,4-triazin-2(3H)-yl)phenoxy)-2-hydroxy-N-(1-(methylsulfonyl)pyrrolidin-3-yl)benzenesulfonamide]
B (40~85)	> 1	B (75~90)	0.02 to 0.1	O=C(C1CC1)N1CC(NS(=O)(=O)c2cc(Oc3c(Cl)cc(-n4nc(C(F)F)c(=O)[nH]c4=O)cc3Cl)ccc2O)C1 [Compound 52, N-(1-(cyclopropanecarbonyl)azetidin-3-yl)-5-(2,6-dichloro-4-(6-(difluoromethyl)-3,5-dioxo-4,5-dihydro-1,2,4-triazin-2(3H)-yl)phenoxy)-2-hydroxybenzenesulfonamide]
B (40~85)	> 1	B (75~90)	0.002 to 0.02	CN(C)C(=O)N1CC(NS(=O)(=O)c2cc(Oc3c(Cl)cc(-n4nc(C(F)F)c(=O)[nH]c4=O)cc3Cl)ccc2O)C1 [Compound 53, 3-((5-(2,6-dichloro-4-(6-(difluoromethyl)-3,5-dioxo-4,5-dihydro-1,2,4-triazin-2(3H)-yl)phenoxy)-2-hydroxyphenyl)sulfonamido)-N,N-dimethylazetidine-1-carboxamide]
B (40~85)	0.2 to 1	C (<75)	0.02 to 0.1	CS(=O)(=O)N1CC(NS(=O)(=O)c2cc(Oc3c(Cl)cc(-n4nc(C(F)F)c(=O)[nH]c4=O)cc3Cl)ccc2O)C1 [Compound 54, 5-(2,6-dichloro-4-(6-(difluoromethyl)-3,5-dioxo-4,5-dihydro-1,2,4-triazin-2(3H)-yl)phenoxy)-2-hydroxy-N-(1-(methylsulfonyl)azetidin-3-yl)benzenesulfonamide]
B (40~85)	0.002 to 0.2	B (75~90)	< 0.002	CCS(=O)(=O)N[C@H]1CCN(S(=O)(=O)c2cc(Oc3c(Cl)cc(-n4nc(C(F)F)c(=O)[nH]c4=O)cc3Cl)ccc2O)C1 [Compound 55, (S)-N-(1-((5-(2,6-dichloro-4-(6-(difluoromethyl)-3,5-dioxo-4,5-dihydro-1,2,4-triazin-2(3H)-yl)phenoxy)-2-hydroxyphenyl)sulfonyl)pyrrolidin-3-yl)ethanesulfonamide]
B (40~85)	0.002 to 0.2	C (<75)	< 0.002	O=C(N[C@H]1CCN(S(=O)(=O)c2cc(Oc3c(Cl)cc(-n4nc(C(F)F)c(=O)[nH]c4=O)cc3Cl)ccc2O)C1)C1CC1 [Compound 56, (S)-N-(1-((5-(2,6-dichloro-4-(6-(difluoromethyl)-3,5-dioxo-4,5-dihydro-1,2,4-triazin-2(3H)-yl)phenoxy)-2-hydroxyphenyl)sulfonyl)pyrrolidin-3-yl)cyclopropanecarboxamide]
C (<40)	> 1	C (<75)	0.02 to 0.1	CNC(=O)N1CC(NS(=O)(=O)c2cc(Oc3c(Cl)cc(-n4nc(C(F)F)c(=O)[nH]c4=O)cc3Cl)ccc2O)C1 [Compound 57, 3-((5-(2,6-dichloro-4-(6-(difluoromethyl)-3,5-dioxo-4,5-dihydro-1,2,4-triazin-2(3H)-yl)phenoxy)-2-hydroxyphenyl)sulfonamido)-N-methylazetidine-1-carboxamide]
A (85~110)	0.002 to 0.2	B (75~90)	< 0.002	NC(=O)CNS(=O)(=O)c1cc(Oc2c(Cl)cc(-n3nc(C(F)F)c(=O)[nH]c3=O)cc2Cl)ccc1O [Compound 58, 2-((5-(2,6-dichloro-4-(6-(difluoromethyl)-3,5-dioxo-4,5-dihydro-1,2,4-triazin-2 (3H)-yl)phenoxy)-2-hydroxyphenyl)sulfonamido)acetamide]
B (40~85)	0.2 to 1	A (90~110)	0.002 to 0.02	O=C(CNS(=O)(=O)c1cc(Oc2c(Cl)cc(-n3nc(C(F)F)c(=O)[nH]c3=O)cc2Cl)ccc1O)NC1CC1 [Compound 59, N-cyclopropyl-2-((5-(2,6-dichloro-4-(6-(difluoromethyl)-3,5-dioxo-4,5-dihydro-1,2,4-triazin-2(3H)-yl)phenoxy)-2-hydroxyphenyl)sulfonamido)acetamide]
B (40~85)	0.002 to 0.2	B (75~90)	0.002 to 0.02	CNC(=O)CNS(=O)(=O)c1cc(Oc2c(Cl)cc(-n3nc(C(F)F)c(=O)[nH]c3=O)cc2Cl)ccc1O [Compound 60, 2-((5-(2,6-dichloro-4-(6-(difluoromethyl)-3,5-dioxo-4,5-dihydro-1,2,4-triazin-2(3H)-yl)phenoxy)-2-hydroxyphenyl)sulfonamido)-N-methylacetamide]
B (40~85)	> 1	B (75~90)	0.002 to 0.02	CNC(=O)[C@H]1C[C@H](NS(=O)(=O)c2cc(Oc3c(Cl)cc(-n4nc(C(F)F)c(=O)[nH]c4=O)cc3Cl)ccc2O)C1 [Compound 61, (1r,3r)-3-((5-(2,6-dichloro-4-(6-(difluoromethyl)-3,5-dioxo-4,5-dihydro-1,2,4-triazin-2(3H)-yl)phenoxy)-2-hydroxyphenyl)sulfonamido)-N-methylcyclobutane-1-carboxamide]
B (40~85)	0.2 to 1	B (75~90)	0.002 to 0.02	O=C(CNS(=O)(=O)c1cc(Oc2c(Cl)cc(-n3nc(C(F)F)c(=O)[nH]c3=O)cc2Cl)ccc1O)NC1CCC1 [Compound 62, N-cyclobutyl-2-((5-(2,6-dichloro-4-(6-(difluoromethyl)-3,5-dioxo-4,5-dihydro-1,2,4-triazin-2(3H)-yl)phenoxy)-2-hydroxyphenyl)sulfonamido)acetamide]
B (40~85)	> 1	B (75~90)	0.02 to 0.1	O=C(CNS(=O)(=O)c1cc(Oc2c(Cl)cc(-n3nc(C(F)F)c(=O)[nH]c3=O)cc2Cl)ccc1O)N1CCC1 [Compound 63, N-[2-(azetidin-1-yl)-2-oxo-ethyl]-5-[2,6-dichloro-4-[6-(difluoromethyl)-3,5-dioxo-1,2,4-triazin-2-yl]phenoxy]-2-hydroxy-benzenesulfonamide]
